# According to patent publication US20220047552A1, “RAF-1 KINASE INHIBITOR COMPOUNDS FOR SKELETAL MUSCLE MODULATION, METHODS AND USES THEREOF” (SOCIETE DES PRODUITS NESTLE S.A., priority 2018, published 2022):
# What was measured:
# [1] = test system: human primary muscle cells; test: Assay for myogenesis (troponin-T myotube detection); type: cell-based; details: human primary myoblasts, differentiation medium, 96 hours, dose dependent response
# From the text: In order to confirm the results from the primary assay described above, a secondary assay for myogenesis in vitro on all the hits obtained in this primary screening assay. This secondary assay focused on the later stage of myogenesis when the muscle cells fuse together and form multinucleated myotubes. This assay was based on the detection of the mature troponin-T protein that is expressed in myotubes. In particular, two measurements were made: Fusion factor, which is the % of nuclei that are inside the multinucleated myotubes compare to total nuclei and give a readout for muscle cell differentiation. Myotube area, which is measured based on the Troponin T staining and give a readout on the myotube size and muscle fiber growth. Human primary myoblasts were seeded in 384 well plates at a density of 3'000 cells per well in skeletal muscle growth medium (SKM-M, AMSbio). After one day, the differentiation is induced by a medium change. For treatment, compounds were directly added to the myoblast cultures for 96 hours. Myotubes were stained for TroponinT expression using antibodies directed against TroponinT and counterstained with Hoechst 33342 to visualize cell nuclei. Image acquisition was performed using the ImageXpress (Molecular Devices) platform. Custom module analysis based on Multi-Wavelength Cell Scoring of the MetaXpress software was used for quantification.
# [2] = test system: human primary muscle stem cells; test: Assay for muscle stem cell commitment (Pax7/MyoD immunofluorescence high content screening); type: cell-based; details: human primary myoblasts, 96 hours
# From the text: The inventors developed a high content screening to test in vitro compounds on human primary adult muscle cells. Human Skeletal Muscle Myoblasts (HSMM) were purchased from Lonza (https://bioscience.lonza.com). These cells were isolated from the upper arm or leg muscle tissue of normal donors and used after the second passage. Several donors have been tested to ensure cell viability and purity before selecting the final donor which was a person. The primary screening assay was based on the high content detection of two important myogenic regulatory factors (Pax7 and MyoD) by immunofluorescence. Pax7 and MyoD are the major hallmarks of muscle stem cell stemness and commitment and can be used to monitor muscle stem cell progeny. In particular, Pax7 marks early amplification while MyoD is a later marker for myogenic commitment, and combinations of these markers define the different states of proliferation, differentiation and self-renewal. […] Human primary myoblasts were seeded in 384 well plates at a density of 1'000 cells per well in skeletal muscle growth medium (SKM-M, AMSbio). For treatment, compounds were directly added to the myoblast cultures 16 hours after initial plating. All cultures were then grown for 96 hours. […] Custom module analysis based on Multi-Wavelength Cell Scoring of the MetaXpress software was used for quantification.
structure (smiles),measurement,setting,value
"O=C1Nc2ccc(I)cc2C1=Cc1cc(Br)c(O)c(Br)c1 [GW5074, 3-(3,5-Dibromo-4-hydroxy-benzylidene)-5-iodo-1,3-dihydro-indol-2-one]","myogenic differentiation (Fusion Factor, percent nuclei within troponinT-positive myotubes)",[1]; FIG. 2A,enhanced myogenic differentiation
same,myofiber growth (area covered by troponinT-positive myotubes),[1]; FIG. 2B,enhanced
same,proportion of MyoD+ cells as percent of total cell number (myogenic commitment),"[2]; FIG. 1A, dose-dependent response, MyoD+ = Pax7-/MyoD+",increase in the proportion of MyoD+ cells
same,number of Pax7+ cells (expansion of muscle stem cells),"[2]; FIG. 1B, dose dependent response, Pax7+ regardless of MyoD expression",increase in Pax7+ cells
